This note sets out measurements from US6372727B1, “Metalloporphyrin treatment of neurologic disease” (UAB Research Foundation, priority 1999, dated 2002).

Assay [1] has as its system ALS-SOD1 (G93A) transgenic mice. The assay can be described thus: Survival of ALS-SOD1 (G93A) transgenic mice. Type of assay: in vivo. Here is the method:
FIG. 13A: Transgenic mice (n=9) were injected intraperitoneally with 3 mg/kg/day of a low molecular weight (844.6) synthetic iron porphyrin. […] Treatment was continued until such time that signs of diaphragm weakness (labored breathing) necessitated sacrifice. A control group of transgenic mice was treated with vehicle only (phosphate-buffered saline). FIG. 13B: Transgenic mice were injected intraperitoneally with 1 mg/kg/day of a low molecular weight (844.6) synthetic iron porphyrin. Treatment began at day 60 prior to the onset of symptoms. A control group of transgenic mice was treated with vehicle only (phosphate-buffered saline).
Mice transgenic for the G93A mutated form of SOD1 are generally accepted as the standard model of motor neuron disease. […] This compound extended the mean survival time by 13 days (from 127 to 140 days) (FIG. 13A).
A group of G93A mice was treated with 1 mg/kg of FeTCPP intraperitoneally beginning at 60 days of age. As with the control group in FIG. 13A, none of the control group in this test survived past 132 days. However, the probability of survival at 140 days was about 37% and at approximately 180 days survival was still at 20%.

Assay [2] can be described thus: Ascorbate oxidation by MPs monitored at 266 nm. Type of assay: biochemical. As to conditions: MP 10 μM, 50 μM ascorbate, 0.1 M potassium phosphate pH 7.4, ± standard error, n=3.
Assay [3] can be described thus: MP-catalyzed peroxynitrite decomposition monitored at 302 nm. Conditions: 100 μM peroxynitrite. Type of assay: biochemical.
A short description of assay [4]: Spectral scans of peroxynitrite-oxidized Mn porphyrins and re-reduction of Mn(IV). It is filed as biochemical. As to the method:
The peaks at 428 nm (left arrows) are due to Mn(IV)=O (15) whereas the 464 nm peaks (right arrows) are due to Mn(III). […] INSET: The indicated amounts of peroxynitrite were added to solutions of MnTBAP (10 μM) in phosphate buffer and the decrease in 464 nm absorbance was monitored at a data collection rate of 10 points/s. The maximal change in 464 nm absorbance associated with oxidation of Mn(III) to Mn(IV), which occurred in >1 s, was plotted versus peroxynitrite; the concentration at which no further absorbance change occurred was used to establish the reaction stoichiometry.

For assay [5] the following is noted: MP 5 μM, GSH 2 mM, 0.1 M potassium phosphate pH 7.4, 37° C. As to the method:
Aliquots (14 μl) were removed at 10 min intervals and added to 1.4 of 0.1 M potassium phosphate, pH 7.4 containing 0.2 mM dithionitrobenzoic acid (Ellman's Reagent) and 50 μM EDTA. GSH concentration was determined by the change in 430 nm absorbance. The extinction coefficient at 430 nm was determined to be 13,900 M^−1cm^−1 using a fresh GSH solution standardized by weight.
In order to test the hypothesis that Mn(II)- or Fe(II)-porphyrins would be capable of carrying out two-electron reductions of peroxynitrite and thereby decreasing rather than increasing its reactivity, attempts were made to pre-reduce these transition metal-containing MPs prior to addition of peroxynitrite.

Where [6] appears, read: 1 mg/kg intraperitoneally beginning at 60 days of age.

“And” between values parts separate entries of the source, which are not always exact repeats. Equal entries are not always repeated.

Consider `O=C(O)c1ccc(-c2c3nc(c(-c4ccc(C(=O)O)cc4)c4ccc([n-]4)c(-c4ccc(C(=O)O)cc4)c4nc(c(-c5ccc(C(=O)O)cc5)c5ccc2[n-]5)C=C4)C=C3)cc1.[Fe+2]` [FeTCPP, Iron (III) meso 5,10,15,20-tetrakis-(4-carboxy-phenyl) porphyrin], for which, in assay [1] (setting [6]), the “probability of survival at 140 days” value was “about 37%” and the “survival at approximately 180 days” value came out at 20%. Also, the mean survival time in assay [1] (5 mg/kg, treatment from onset of symptoms) is listed as 140 days. The “extension of mean survival time” value in assay [1] (5 mg/kg, treatment from onset of symptoms, versus vehicle) worked out at 13 days. Besides, in assay [1] (G93A mutant of Cu,Zn superoxide dismutase transgene), the “progression of motor neuron death in mice” value is on record as “slow the progression of motor neuron death”. Moreover, the “upper limit of survival time” value in assay [1] (administered at the onset of symptoms) was “about 148 days”. Further, the “Rate of Ascorbate Oxidation” value in assay [2] is 5.8 µM/min. Also, in assay [3] (absence of added reductants), the “Rate Constants for MP-Catalyzed Decomposition of Peroxynitrite (pH 7.4, 37° C.)” value was 1.6×10^6 M^−1s^−1 and 2.9 × 10^6 M^−1s^−1 ± 0.4 M^−1s^−1.
Turning to `C[n+]1ccc(-c2c3nc(c(-c4cc[n+](C)cc4)c4ccc([n-]4)c(-c4cc[n+](C)cc4)c4nc(c(-c5cc[n+](C)cc5)c5ccc2[n-]5)C=C4)C=C3)cc1.[Cl-].[Cl-].[Cl-].[Cl-].[Cl-].[Mn+3]` [MnTMPyP, Manganese (III) meso-tetra-(N-methyl-4-pyridyl)-porphine chloride], in assay [2], the “Rate of Ascorbate Oxidation” value was found to be 6.77 ± 0.33 µM/min. The “time to complete re-reduction to Mn(III)” value in assay [4] (10 μM MP, peroxynitrite 20 μM alone) was found to be 30 s; in assay [4] (50 μM H2O2 added before peroxynitrite), 17 s; in assay [4] (50 μM nitrate added before peroxynitrite), 74 s; in assay [4] (50 μM nitrite added before peroxynitrite), 30 s; in assay [4] (H2O2 and nitrate or H2O2 and nitrite added together), 17 s. For the same compound, the “rate of GSH oxidation” value in assay [5] is 22 µM/min. Besides, in assay [3] (plus ascorbate 150 μM), the “Rate Constants for MP-Catalyzed Decomposition of Peroxynitrite (pH 7.4, 37° C.)” value is given as 1.8 × 10^6 ± 0.3 M^−1s^−1.
